# Marks after values point to notes of the source that are not given here. Starred links: 1 amine or outer side, 2 acyl side, 3 side chain; linkers in the order of their positions; H or OH if unused. Residues, ends and D or L forms follow the SMILES beside them. Groups on a side chain read outwards from the residue. *: point of attachment. C20 diacid = O=C(O)CCCCCCCCCCCCCCCCCCC(=O)*; γGlu = O=C(O)[C@H](CCC(=O)[*:2])N[*:1]; AEEA = NCCOCCOCC(=O)O
# What was measured:
# [1] = Body mass and body fat content in mouse model of diet-induced obesity (DIO); assay type: in vivo; settings: DIO mice
# Description: SEQ ID NO: 3, SEQ ID NO: 6, SEQ ID NO: 238, SEQ ID NO: 16 and SEQ ID NO: 215 were assessed for their ability to reduce body mass and body fat content in a mouse model of diet-induced obesity (DIO).
# Male C57BL/6JRj mice were obtained from JanVier (JanVier Labs, France) at 5 weeks of age. The animals were group-housed during obesity induction and then single housed 2 weeks prior to study start. They were housed under a 12/12 h dark-light cycle, light off at 3 PM. Room temperature was controlled to 22°C ± 1°C, with 60 % ± 20% humidity. For 22-23 weeks prior to treatment start and throughout the study, the animals had ad libitum access to high-fat diet (60% kcal fat, D12492, Research Diets) and tap water.
# The animals were randomized according to lean mass (EchoMRI) and body weight. Animals were dosed subcutaneously […] for 30-32 days. In study 1, the animals were dosed with vehicle or SEQ ID NO: 3 (10, 30, 60 or 100 nmol/kg). In study 2, the animals were dosed with vehicle or SEQ ID NO: 6 (10 or 30 nmol/kg), SEQ ID NO: 238 (10 or 30 nmol/kg), SEQ ID NO: 16 (10 or 30 nmol/kg), SEQ ID NO: 215 (10 or 30 nmol/kg) or SEQ ID NO: 3 (30 nmol/kg).
# Body weight and food intake were recorded daily until day 28 and body composition evaluated on day 26 using EchoMRI. At termination, blood for HbA1c analyses were collected and M. gastrocnemius and M. soleus were weighed.
# Statistical significance was evaluated using One-way analysis of variance with Dunnett's multiple comparison test. P < 0.05 was considered statistically significant.
# mCRHR2 = molecular target: T1, mCRHR2 (Mus musculus, UniProt Q60748); assay: cAMP potency, transiently transfected CHO-K1 cells, mCRHR2; assay type: cell-based; settings: transiently transfected CHO-K1, average n=3; read-out: Transient cell system EC50 (nM) mCRH R2
# T1 construct: DYK (FLAG); host or cells: CHO-K1, transiently transfected
# Description: Selected peptides were tested for potency on different species (mouse, rat, porcine) using transiently transfected CHO-K1 cells using the general procedure.
# hCRHR2a = molecular target: T2, hCRHR2a (Homo sapiens, UniProt Q13324); assay: cAMP potency, transiently transfected CHO-K1 cells, hCRHR2a; assay type: cell-based; settings: transiently transfected CHO-K1, average n=3; read-out: Transient cell system EC50 (nM) hCRHR 2a
# T2 construct: DYK (FLAG); host or cells: CHO-K1, transiently transfected
# T2 sequence (Q13324 1-411): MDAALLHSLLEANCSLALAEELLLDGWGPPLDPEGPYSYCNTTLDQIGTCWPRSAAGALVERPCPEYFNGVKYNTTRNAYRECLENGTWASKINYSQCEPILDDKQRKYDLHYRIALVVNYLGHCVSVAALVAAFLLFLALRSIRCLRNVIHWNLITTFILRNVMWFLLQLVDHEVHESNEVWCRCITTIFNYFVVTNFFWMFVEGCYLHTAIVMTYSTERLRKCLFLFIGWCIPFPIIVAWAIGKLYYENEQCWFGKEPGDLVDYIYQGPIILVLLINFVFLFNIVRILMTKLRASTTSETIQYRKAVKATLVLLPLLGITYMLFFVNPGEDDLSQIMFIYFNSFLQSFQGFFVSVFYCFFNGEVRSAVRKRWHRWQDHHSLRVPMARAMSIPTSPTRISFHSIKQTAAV
# [2] = Table 16 study, 10 nmol/kg, ± SEM
# [3] = Table 16 study, 30 nmol/kg, ± SEM
# [4] = Table 16 study, 60 nmol/kg, ± SEM
# [5] = Table 16 study, 100 nmol/kg, ± SEM
# [6] = Table 17 study, 30 nmol/kg, ± SEM
# T1 sequence (Q60748 1-431 isoform Q60748-2): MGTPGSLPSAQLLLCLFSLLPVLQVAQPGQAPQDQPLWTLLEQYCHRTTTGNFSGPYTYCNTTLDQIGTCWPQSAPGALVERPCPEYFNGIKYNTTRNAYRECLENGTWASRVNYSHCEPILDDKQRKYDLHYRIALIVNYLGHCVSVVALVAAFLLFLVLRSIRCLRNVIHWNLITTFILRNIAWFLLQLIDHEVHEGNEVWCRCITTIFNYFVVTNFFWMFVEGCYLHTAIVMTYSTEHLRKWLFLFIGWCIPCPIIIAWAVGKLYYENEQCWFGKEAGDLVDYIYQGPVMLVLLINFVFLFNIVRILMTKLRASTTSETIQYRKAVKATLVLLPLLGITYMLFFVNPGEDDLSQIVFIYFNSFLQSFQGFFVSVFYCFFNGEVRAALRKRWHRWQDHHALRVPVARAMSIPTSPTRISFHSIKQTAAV
structure (smiles),measurement,setting,value
CC[C@H](C)[C@H](N)C(=O)N[C@H](C(=O)N[C@@H](CC(C)C)C(=O)N[C@@H](CO)C(=O)N[C@@H](CC(C)C)C(=O)N[C@@H](CC(=O)O)C(=O)N[C@H](C(=O)N1CCC[C@H]1C(=O)N[C@H](C(=O)NCC(=O)N[C@@H](CC(C)C)C(=O)N[C@@H](CC(C)C)C(=O)N[C@@H](CCC(N)=O)C(=O)N[C@H](C(=O)N[C@@H](CC(C)C)C(=O)N[C@@H](CC(C)C)C(=O)N[C@@H](CCC(=O)O)C(=O)N[C@@H](CCC(N)=O)C(=O)N[C@@H](C)C(=O)N[C@@H](CCCNC(=N)N)C(=O)N[C@@H](C)C(=O)N[C@@H](CCCNC(=N)N)C(=O)N[C@@H](C)C(=O)N[C@@H](C)C(=O)N[C@@H](CCCNC(=N)N)C(=O)N[C@@H](CCC(=O)O)C(=O)N[C@@H](CCC(N)=O)C(=O)N[C@@H](C)C(=O)N[C@@H](CCCCNC(=O)COCCOCCNC(=O)COCCOCCNC(=O)CC[C@H](NC(=O)CC[C@H](NC(=O)CCCCCCCCCCCCCCCCCCC(=O)O)C(=O)O)C(=O)O)C(=O)N[C@H](C(=O)N[C@@H](CC(N)=O)C(=O)N[C@@H](C)C(=O)N[C@@H](CCC(=O)O)C(=O)N[C@H](C(=O)N[C@@H](CC(C)C)C(=O)N[C@@H](C)C(=O)N[C@@H](CCC(=O)O)C(=O)N[C@H](C(N)=O)C(C)C)[C@@H](C)CC)[C@@H](C)O)[C@@H](C)CC)[C@@H](C)CC)C(C)C)C(C)C [SEQ ID NO: 3] (H-IVLSLDVPIGLLQILLEQARARAAREQAK([AEEA-AEEA-γGlu-γGlu-C20 diacid])TNAEILAEV-NH2),relative body weight,"[1]; 28 days, compared to vehicle",prolonged dose-dependent reduction
same,Blood HbA1c,"[1]; Table 16 study, 10 nmol/kg",4.3 ± 0.1%
same,M. Gastrocnemius,"[1]; Table 16 study, 10 nmol/kg",0.17 ± 0.005 g
same,M. Soleus,"[1]; Table 16 study, 10 nmol/kg",0.011 ± 0.0005 g
same,BW at termination,[1]; [2],41.9 ± 1.5 g
same,Fat mass change from baseline,[1]; [2],-7.7 ± 0.7 g
same,Lean mass change from baseline,[1]; [2],1.4 ± 0.3 g
same,Relative body weight change at termination,[1]; [2],94.3 ± 1.6 %
same,Blood HbA1c,"[1]; Table 16 study, 30 nmol/kg",4.1 ± 0.1 %
same,M. Gastrocnemius,"[1]; Table 16 study, 30 nmol/kg",0.17 ± 0.003 g
same,M. Soleus,"[1]; Table 16 study, 30 nmol/kg",0.012 ± 0.0005 g
same,BW at termination,[1]; [3],38.2 ± 1.0 g
same,Fat mass change from baseline,[1]; [3],-10.2 ± 0.6 g
same,Lean mass change from baseline,[1]; [3],0.4 ± 0.4 g
same,Relative body weight change at termination,[1]; [3],89.0 ± 2.2 %
same,Blood HbA1c,"[1]; Table 16 study, 60 nmol/kg",4.15 ± 0.1 %
same,M. Gastrocnemius,"[1]; Table 16 study, 60 nmol/kg",0.16 ± 0.004 g
same,M. Soleus,"[1]; Table 16 study, 60 nmol/kg",0.012 ± 0.0004 g
same,BW at termination,[1]; [4],38.5 ± 0.6 g
same,Fat mass change from baseline,[1]; [4],-10.8 ± 0.6 g
same,Lean mass change from baseline,[1]; [4],0.8 ± 0.3 g
same,Relative body weight change at termination,[1]; [4],89.9 ± 1.9 %
same,Blood HbA1c,"[1]; Table 16 study, 100 nmol/kg",4.1 ± 0.1 %
same,M. Gastrocnemius,"[1]; Table 16 study, 100 nmol/kg",0.17 ± 0.003 g
same,M. Soleus,"[1]; Table 16 study, 100 nmol/kg",0.011 ± 0.0006 g
same,BW at termination,[1]; [5],37.3 ± 0.6 g
same,Fat mass change from baseline,[1]; [5],-11.2 ± 0.6 g
same,Lean mass change from baseline,[1]; [5],0.8 ± 0.2 g
same,Relative body weight change at termination,[1]; [5],87.7 ± 1.3 %
same,Blood HbA1c,"[1]; Table 17 study, 30 nmol/kg",4.2 ± 0.1 %
same,M. Gastrocnemius,"[1]; Table 17 study, 30 nmol/kg",0.19 ± 0.003* * g
same,M. Soleus,"[1]; Table 17 study, 30 nmol/kg",0.013 ± 0.0006 g
same,Body weight at termination,[1]; [6],39.3 ± 0.9 g
same,Fat mass change from baseline,[1]; [6],-9.5 ± 0.6 g
same,Lean mass change from baseline,[1]; [6],-0.2 ± 0.2 g
same,Relative body weight change at termination,[1]; [6],82.4 ± 1.6 %
same,EC50,mCRHR2,0.0054 nM
same,EC50,hCRHR2a,0.016 nM

# From patent EP4810052A2, “HCRHR2 SELECTIVE POLYPEPTIDES” (Gubra A/S, priority 2023, dated 2026)
